Results from paper PMC5442318, “Hundreds of dual-stage antimalarial molecules discovered by a functional gametocyte screen” (Nature Communications, 2017).
Read-outs that look alike come from different tables or passages of the source.

Tests used:
[1] = test system: P. falciparum stages IV–V gametocytes; test: Gametocytocidal ATP-depletion assay (gametocyte ATP bioluminescence); type: cell-based, Plasmodium falciparum
Outline: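 Purified stage IV–V gametocytes (12,500/well) incubated with compound for 48 h at 37 °C under 3% O2/5% CO2. ATP measured by BacTiter-Glo luminescence as a viability surrogate; hits tested at 2 μM single concentration.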

[2] = test system: HepG2 cells; test: HepG2 cytotoxicity assay; type: cell-based
Outline: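 Post-incubation CellTiter-Glo luminescence; 30 min RT equilibration, 10 min RT stabilization before reading.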

[3] = test system: P. falciparum stage V female gametocytes; test: P. falciparum female gametocyte activation assay (Pf FGAA), 24 h or 48 h preincubation, Pfs25 expression readout; type: cell-based, Plasmodium falciparum NF54; conditions: mean, read-out: Gametocytes mean Pf FGAA IC50
Outline: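 Purified stage V gametocytes from P. falciparum NF54 gametocyte cultures were exposed to compounds for 24 h or 48 h at 37 °C under 3% O2/5% CO2, then activated by temperature drop plus xanthurenic acid. Activated females were stained with Cy3-anti-Pfs25 (0.5 μg ml^−1) for 24 h at 26 °C and counted by high-content imaging; pIC50 by nonlinear regression.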

[4] = test system: P. falciparum asexual blood stages; conditions: read-out: Pf Asexual blood stages XC50, cited from earlier work
[5] = P. falciparum female gametocytes
[6] = TCAMS asexual blood stage data, ref 1 (Gamo, F. J. et al., Nature 465, 305-310, 2010)
[7] = TCAMS data, ref 1 (Gamo et al., 2010)

IC50 [3, 5] | IC50 [3] | Structure (SMILES) | Gametocytes mean ATP inhibition at 2µM [1] | HepG2 cells mean TOX50 ([2]; HepG2 cells; mean) | IC50 [4, 6] | Gametocytes mean ATP inhibition at 2µM (%) [1] | HepG2 cells mean TOX50 ([2]; mean) | IC50 [4, 7] | further results
1.25 µM |  | Cn1c(Sc2ncnc3sccc23)nc2ccccc21 [TCMDC-124514] | 17.03% | >100 µM | 0.19 µM |  |  |  | 
 | 1.83 µM | Cc1oc(-c2ccc(Cl)cc2)cc1C(=O)NCCC1CCN(CCCCCNC(=O)/C=C/c2ccc(Cl)c(Cl)c2)CC1 [TCMDC-140009] |  |  |  | -9.24% | 3.31 µM | 0.45 µM | 
2.1 µM |  | CN(C)Cc1cccc2nc(-c3csc(Cc4cc(Cl)ccc4OCc4ccccc4)n3)[nH]c12 [TCMDC-132174] | 47.80% | 13.04 µM | 1.12 µM |  |  |  | 
 | 1.12 µM | CC(Cc1ccc(NC(=O)c2ccc(CNCCCCc3ccccc3)cc2)cc1)NCCc1cccc(Cl)c1.Cl (stereo not drawn) [TCMDC-139866] |  |  |  | 18.31% | 1.97 µM | 0.33 µM | 
 | 1.44 µM | Oc1ccc2[nH]cc(C3CCN(CCCNCc4ccc(-c5ccccc5)cc4)CC3)c2c1 [TCMDC-139047] |  |  |  | -20.32% | 5.62 µM | 0.73 µM | 
0.0366 µM |  | [O-][s+]1c(Cl)c(-c2ccc(Cl)cc2)c2ccc(Cl)cc21 (stereo not drawn) [TCMDC-124011] | 87.64% | 11.35 µM | 0.99 µM |  |  |  | 
7.05 µM |  | Cc1sc2nc(CN3CCCC3)nc(-n3c(NCCO)nc4ccccc43)c2c1C [TCMDC-124811] | 42.91% | 25.73 µM | 1.24 µM |  |  |  | 
1.09 µM |  | Cc1c2ccncc2c(C)c2c1[nH]c1cc(Cc3ccccc3)c(O)cc12 [TCMDC-132053] | -3.89% | 1.23 µM | 0.15 µM |  |  |  | 
 | 0.81 µM | CC(=O)N(Cc1ccc(CC(C)NCCc2cccc(Cl)c2)cc1)Cc1ccc(CC(C)NCCc2cccc(Cl)c2)cc1 (stereo not drawn) [TCMDC-139678] |  |  |  | 14.97% | 2.85 µM | 0.78 µM | 
 | 1.89 µM | N=C(NCC1CC1c1ccccc1)c1cccc(C(=N)NCC2CC2c2ccccc2)n1 (stereo not drawn) [TCMDC-137456] |  |  |  | 24.65% | 6.21 µM | 1.76 µM | 
 | 1.06 µM | COc1ccc(NC(=O)c2cccc(Br)c2)cc1N1CCN(CCCCCCCN2CCN(c3cc(NC(=O)c4cccc(Br)c4)ccc3OC)CC2)CC1.Cl [TCMDC-139020] |  |  |  | -4.19% | 6.03 µM | 0.18 µM | 
 | 1.29 µM | Nc1ccc2[nH]cc(C3CCN(CCC4CCN(C(=O)/C=C/c5ccc(Cl)c(Cl)c5)CC4)CC3)c2n1 [TCMDC-140062] |  |  |  | -11.87% | 8.13 µM | 0.74 µM | 
9.66 µM |  | Br.CC(C)(Cc1ccc(Cl)cc1)NCCCCCCNCCc1ccc(O)c(O)c1 [TCMDC-131277] | 53.83% | 10.97 µM | 1.2 µM |  |  |  | 
 | 3.11 µM | COc1ccc(N2CCN(CCCCNCc3ccc(NC(=O)c4cc(Cl)cc(Cl)c4)cc3)CC2)c(OC)c1 [TCMDC-138226] |  |  |  | 17.06% | 4.42 µM | 0.25 µM | 
 | 1.01 µM | CC(Cc1ccc(C(=O)Nc2ccc(CC(C)NCCc3cccc(Cl)c3)cc2)cc1)NCCc1ccc(C(F)(F)F)cc1 (stereo not drawn) [TCMDC-139790] |  |  |  | 57.11% | 4.13 µM | 0.57 µM | 
3.34 µM |  | OCCN1CCN(c2ccc(Nc3ccnc4cc5ccccc5cc34)cc2)CC1 [TCMDC-123915] | 2.56% | 5.43 µM | 0.04 µM |  |  |  | 
 |  | Cc1c(N=O)cc(C(C)(C)C)c(O)c1C(=O)Nc1ccc([N+](=O)[O-])cc1Cl [TCMDC-142233] | -7.78% |  | 0.77 µM |  |  |  | HepG2 cells mean TOX50 ([2]; mean; HepG2 cells): 1.78 µM; IC50 ([3]; P. falciparum female gametocyte activation assay): 1.17 µM
 |  | COc1ccc(C[C@H](N)C(=O)N[C@H]2[C@@H](O)[C@H](n3cnc4c(N(C)C)ncnc43)O[C@@H]2CO)cc1 [TCMDC-123493] |  | 1.80 µM | 0.17 µM |  |  |  | inhibition at 2 µM ([1]; Plasmodium falciparum, mean): 63.8%; Selectivity ratio ([2]; HepG2 TOX50 versus Pf FGAA IC50): 6.24; IC50 ([3]; Plasmodium falciparum, P. falciparum female gametocytes): 0.29 µM

Structure (SMILES) | IC50 [3, 5] | IC50 [3] | Gametocytes mean ATP inhibition at 2µM [1] | HepG2 cells mean TOX50 ([2]; HepG2 cells; mean) | IC50 [4, 6] | Gametocytes mean ATP inhibition at 2µM (%) [1] | HepG2 cells mean TOX50 ([2]; mean) | IC50 [4, 7] | further results
O=C(O)C(F)(F)F.O=S(=O)(NCCN1CCCC1)c1ccc(-c2ccc(CNC3Cc4ccccc4C3)cc2)s1 [TCMDC-132234] | 2.27 µM |  | 1.19% | 5.83 µM | 0.59 µM |  |  |  | 
COc1cc2nc(N3CCC(CCCC4CCNCC4)CC3)nc(NCc3ccccn3)c2cc1OC.O=C(O)C(F)(F)F [TCMDC-138494] |  | 6.86 µM |  |  |  | 35.38% | 18.51 µM | 0.76 µM | 
FC(F)(F)c1ccc2[nH]c(-c3cccc(-c4ccc(CNCCN5CCNCC5)cc4)c3)nc2c1.O=C(O)C(F)(F)F [TCMDC-132872] | 1.79 µM |  | -15.41% | 8.81 µM | 0.86 µM |  |  |  | 
CC(C)(C)c1ccc(CN2CCC(CNC(=O)c3cc(-c4ccccc4F)cs3)C2)cc1.O=C(O)C(F)(F)F (stereo not drawn) [TCMDC-134443] | 0.83 µM |  | -4.04% | 9.30 µM | 0.56 µM |  |  |  | 
COc1ccc2ccccc2c1CCCCN1CCN(CC(c2ccc(F)cc2)N2CCC2)CC1.O=C(O)C(F)(F)F (stereo not drawn) [TCMDC-135867] |  | 5.86 µM |  |  |  | -0.41% | 4.37 µM | 0.76 µM | 
FC(F)(F)c1ccc2[nH]c(-c3ccc(-c4ccc(CNCCN5CCNCC5)cc4)s3)nc2c1.O=C(O)C(F)(F)F [TCMDC-132862] | 3 µM |  | -0.18% | 12.88 µM | 0.91 µM |  |  |  | 
O=C(O)C(F)(F)F.O=S(=O)(c1ccccc1)n1ccc2cc(Nc3ncnc4cc(C#C[C@H]5CCCN5)sc34)ccc21 [TCMDC-138913] |  | 1.17 µM |  |  |  | 75.13% | 5.50 µM | 1.07 µM | 
COc1cc2ccccc2cc1CCNCCCCNCCc1cc2ccccc2cc1OC.CS(=O)(=O)O [TCMDC-137944] |  | 0.62 µM |  |  |  | 84.04% | 1.66 µM | 0.4 µM | 
CN1CCN(CCCN(Cc2cccc(-c3ccc(CNCCc4ccccc4)cc3)c2)C(=O)c2cccs2)CC1.O=C(O)C(F)(F)F [TCMDC-140568] |  | 1.71 µM |  |  |  | -8.58% | 5.98 µM | 0.72 µM | 
CC(C)(C)c1ccc(CN2CCC(CNC(=O)c3cc(-c4cccc(C(F)(F)F)c4)cs3)C2)cc1.O=C(O)C(F)(F)F (stereo not drawn) [TCMDC-134442] | 0.95 µM |  | -16.04% | 6.39 µM | 1.03 µM |  |  |  | 
Fc1ccc2[nH]c(-c3cccc(-c4ccc(CN5CCC(CCN6CCCCC6)CC5)cc4)c3)nc2c1.O=C(O)C(F)(F)F [TCMDC-133940] | 1.88 µM |  | -4.48% | 4.79 µM | 0.14 µM |  |  |  | 
